Data as given in US6902913B2, “Recombinant narbonolide polyketide synthase” (priority 1997, dated 2005).

Legend:
[1] = molecular target: T1, 6-hydroxylase encoded by eryF (Saccharopolyspora erythraea, UniProt Q00441); experiment: in vitro 6-hydroxylation by the 6-hydroxylase encoded by eryF; format: biochemical; conditions: 100 pmol hydroxylase, 10 nmol substrate, 90 minutes at 30° C., based on relative total ion counts
T1 construct: made in house; host or cells: E. coli
T1 sequence (Q00441 1-404): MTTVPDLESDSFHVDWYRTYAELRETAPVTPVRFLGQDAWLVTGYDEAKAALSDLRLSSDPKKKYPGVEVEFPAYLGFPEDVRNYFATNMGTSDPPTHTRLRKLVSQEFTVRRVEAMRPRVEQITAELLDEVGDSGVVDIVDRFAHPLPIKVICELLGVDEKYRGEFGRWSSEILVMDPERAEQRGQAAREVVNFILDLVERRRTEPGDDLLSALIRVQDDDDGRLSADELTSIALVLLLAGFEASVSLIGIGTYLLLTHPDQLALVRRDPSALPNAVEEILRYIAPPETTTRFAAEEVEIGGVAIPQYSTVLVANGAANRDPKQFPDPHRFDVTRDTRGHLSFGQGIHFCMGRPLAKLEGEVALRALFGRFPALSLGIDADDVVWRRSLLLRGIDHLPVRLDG
Procedure: The 6-hydroxylase encoded by eryF was expressed in E. coli, and partially purified. The hydroxylase (100 pmol in 10 μL) was added to a reaction mixture (100 μl total volume) containing 50 mM Tris/HCl (pH 7.5), 20 μM spinach ferredoxin, 0.025 Unit of spinach ferredoxin:NADP^+ oxidoreductase, 0.8 Unit of glucose-6-phosphate dehydrogenase, 1.4 mM NADP^+, 7.6 mM glucose-6-phosphate, and 10 nmol 6-deoxyerythronolide B. The reaction was allowed to proceed for 90 minutes at 30° C. Half of the reaction mixture was loaded onto an HPLC, and the effluent was analyzed by mass spectrometry. The production of erythronolide B as evidenced by a new peak eluting earlier in the gradient and showing [M+H]^+=401. Conversion was estimated at 50% based on relative total ion counts.

picK protein = molecular target: T2, picK protein (Streptomyces venezuelae, UniProt O87605, G416S); experiment: hydroxylase activity of the picK protein (conversion of narbomycin to picromycin); format: biochemical; conditions: crude supernatant of E. coli BL21-DE3/pKOS023-61, 20 nmol narbomycin, 105 minutes at 30° C., by ELSD peak area
T2 construct: made in house; host or cells: E. coli BL21-DE3
Procedure: Plasmid pKOS023-61 was transformed into E. coli BL21-DE3. Successful transformants were grown in LB-containing carbenicillin (100 μg/ml) at 37° C. to an OD600 of 0.6. Isopropyl-beta-D-thiogalactopyranoside (IPTG) was added to a final concentration of 1 mM, and the cells were grown for an additional 3 hours before harvesting. The cells were collected by centrifugation and frozen at −80° C. A control culture of BL21-DE3 containing the vector plasmid pET21c (Invitrogen) was prepared in parallel.
The frozen BL21-DE3/pKOS023-61 cells were thawed, suspended in […] of cold cell disruption buffer (5 mM imidazole, 500 mM NaCl, 20 mM Tris/HCl, pH 8.0) and sonicated to facilitate lysis. Cellular debris and supernatant were separated by centrifugation and subjected to SDS-PAGE on 10-15% gradient gels, with Coomassie Blue staining, using a Pharmacia Phast Gel Electrophoresis system. The soluble crude extract from BL21-DE3/pKOS023-61 contained a Coomassie stained band of Mr˜46 kDa, which was absent in the control strain BL21-DE3/pET21c.
The hydroxylase activity of the picK protein was assayed as follows. […] Half of the reaction mixture was loaded onto an HPLC, and the effluent was analyzed by evaporative light scattering (ELSD) and mass spectrometry. […]

SMILES	conversion of 6-deoxyerythronolide B to erythronolide B [1]	conversion of narbomycin to picromycin (picK protein)
CC[C@H]1OC(=O)[C@H](C)[C@@H](O)[C@H](C)[C@@H](O)[C@@H](C)C[C@@H](C)C(=O)[C@H](C)[C@@H](O)[C@H]1C [6-deoxyerythronolide B]	~50%	
CC[C@H]1OC(=O)[C@H](C)C(=O)[C@H](C)[C@@H](O[C@@H]2O[C@H](C)C[C@H](N(C)C)[C@H]2O)[C@@H](C)C[C@@H](C)C(=O)/C=C/[C@H]1C [narbomycin]		greater than 90%
